The source of these data is patent publication US6806249B2, “Perfume containing surfactant compositions having perfume burst when diluted” (Unilever Home & Personal Care USA, a division of Conopco, priority 2002, dated 2004).

Series [1] in a line: Dilution behaviour of components of a twelve-component perfume mixture in 5 wt. % sodium laurate, normalized GC headspace (FIG. 9). It is filed as physicochemical. To be noted: component of perfume mixture in 5 wt. % sodium laurate. How it is done:
A typical fully formulated perfume used in a commercial product, e.g., personal wash formulation, usually is a multi-component composition in which the properties of each perfume component can vary dramatically. A typical perfume mixture in a 5 wt. % sodium laurate formulation was tested for its “perfume burst” behaviour upon dilution. The PBI values of the components in this perfume mixture vary from a large negative number (e.g., benzyl acetate, PBI=−819; PEA, PBI=−200 in sodium laurate solution) to a large positive number (e.g., gamma-methyl-ionone, PBI=1,677 in sodium laurate solution). The dilution behaviour of each component in this perfume mixture is shown in FIG. 9 (the graph represents a normalized GC measurement so the amount of burst of each molecule is clearly indicated). In this perfume mixture of twelve components, the dilution behaviour of each component is different. Each component has a unique dilution curve (GC headspace vs. dilution factor) governed by the factors (hydrophobicity, volatility, etc) discussed previously. […] For those perfumes with a moderate positive PBI (e.g., limonene, PBI=12; p-cymene=12.2 in sodium laurate solution), the perfume headspaces increases 1-2 times upon dilution.

Series [2] can be described thus: Critical micellization concentration (CMC) of surfactants. To be noted: no reference given. The format is physicochemical. The text has this: As noted, the perfume burst is affected not only by the perfume properties, but also by properties of the formulation in which the perfume is found. Thus, the number and type of surfactant micelles found in a surfactant solution also has an effect. […] The critical micellization concentration is defined as the surfactant concentration at which micelles begin to form from unassociated surfactant monomers (M. J. Rosen, Surfactants and Interfacial Phenomena, 2nd Ed., 1989). Conversely, in a surfactant with low critical micelle concentration (e.g., one where micelles do form easily or, stated differently, don't break apart as readily once formed), a perfume, being generally more hydrophobic, tends to stay in the surfactant more readily. As a result, the perfume will tend not to “burst” (increase perfume headspace) as readily and, to achieve more headspace, more dilution may be required. The CMC of the surfactant system also affects “perfume burst”. Thus, for example, a surfactant system of relatively low CMC (e.g., sodium lauryl ether sulfate, also known as SLES) lowers the PBI and can greatly reduce the expected “perfume burst” on dilution. By contrast, surfactant systems of relatively higher CMC (e.g., sodium laurate compared to SLES) would raise PBI and can thus increase “perfume burst” on dilution.

Series [3] is described as follows: Fragrance burst in shower liquids with surfactants of different CMC (FIG. 8). It is filed as physicochemical. To be noted: 5% sodium laureth sulfate (CMC=0.0011 wt/wt) compared with 5% sodium laurate (CMC=0.005 wt/wt). On the procedure: Limonene and γ-Methyl lonone were tested in two different shower liquid samples. One product was formulated with 5% sodium laurate (CMC=0.005 wt/wt) and the second with 5% sodium laureth sulfate (CMC=0.0011 wt/wt) (FIG. 8).

A short description of series [4]: Fragrance burst in shower liquids with different sodium laurate concentrations (FIG. 6). It is filed as physicochemical. To be noted: 5% sodium laurate product compared with 10, 15 (and 20) wt.%. On the procedure: Limonene (PBI=12.2) was tested in shower liquids containing sodium laurate at 5, 10, 15 and 20 wt.%, γ-Methyl lonone and menthone were tested in sodium laurate at 5, 10 and 15 wt.% (FIG. 6).

The conditions of series [5]: 50° C.; cited from earlier work.

Where two headings read alike, the source gives them in different places. Marks after values point to notes of the source that are not given here.

Take `CC(=O)OCc1ccccc1` [Benzyl Acetate]: in series [1], the “perfume headspace behaviour upon dilution” value was “decrease upon dilution”.

As to `CCCCCCCC(=O)NCCC[N+](C)(C)CC(=O)[O-]` [Caprylamidopropyl betaine], in series [2], the CMC turned out to be 0.00032 wt./wt.

Regarding `C=C(C)[C@H]1CC=C(C)CC1` [Limonene], in series [3], the overall fragrance burst entry is “lower overall fragrance burst”. In addition, in series [4], the “dilutions needed to reach maximum fragrance burst” value (“dilutions needed” for short) was “reached with fewer dilutions in the 5% soap product”.

As to `CC(C)[C@@H]1CC[C@@H](C)CC1=O` [Menthone], the “dilutions needed” value in series [4] was “reached with fewer dilutions in the 5% soap product”.

On to `CC(=O)/C(C)=C/C1C(C)=CCCC1(C)C` (stereo not shown) [γ-methyl ionone], for which the “perfume headspace behaviour upon dilution” value in series [1] is “as high as seven times”. The overall fragrance burst entry in series [3] was “lower overall fragrance burst”. Moreover, the “dilutions needed” value in series [4] is recorded as “reached with fewer dilutions in the 5% soap product”.

On to Sodium laureth sulfonate (2EO), for which the CMC in series [5] was 0.0011*** wt./wt.

Regarding Sodium laureth sulfonate (3EO), the CMC in series [5] is 0.00084*** wt./wt.
